Experimental data from publication PMC6688628, “N-Substituted Pyrrole Derivative 12m Inhibits HIV-1 Entry by Targeting Gp41 of HIV-1 Envelope Glycoprotein” (Frontiers in Pharmacology, 2019).

Tests used:
[1] = tested on: primary HIV-1 strains, including the X4, R5, and X4R5 strains; assay: Anti-HIV-1 activity, panel of primary HIV-1 strains; type: cell-based; conditions: Human immunodeficiency virus 1; range over X4, R5 and X4R5 primary strains; read-out: EC50 values against all tested representative primary HIV-1 strains
Method: The HIV-1 replication-inhibiting activity of compounds was determined as previously described ([Li et al., 2013]). Briefly, 1 × 10^4 TZM-bl or MT-2 cells were infected with primary HIV-1 strains or T20-resistant HIV-1 strains (100 TCID50) in 200 µl of RPMI-1640 medium containing 10% FBS in the presence or absence of compounds at graded concentrations for 12 h. The culture medium was replaced with fresh medium without the compounds. After culture for an additional 48 h, supernatants or cells were collected from each well. For the primary HIV-1 strains, the cells were treated using a luciferase kit. Briefly, the cells were lysed with the lysis reagent and were transferred into a 96-well flat-bottom luminometer plate after three washes with phosphate-buffered saline (PBS) (Costar Corning Inc., Corning, NY), followed by addition of the luciferase substrate included in the luciferase kit (Promega Corp., Madison, WI). The luciferase activity was measured immediately by an Ultra 384 microplate reader (Tecan, Research Triangle Park, NC). T20 was used as a positive control. For the T20-resistant HIV-1 strains, 100 µl of culture supernatant was mixed with 100 µl of 5% Triton X-100. […] Absorbance at 450 nm was recorded in an ELISA reader (Ultra 384, Tecan). EC50 values were calculated using the computer program CalcuSyn ([Chou and Talalay, 1984]).

[2] = tested on: HIV-1 NL4-3(36G)N42T,N43K; conditions: T20-resistant NL4-3(36G)N42T,N43K; p24 ELISA; mean ± SD
[3] = tested on: HIV-1SF162 (R5 strain) Env pseudotyped virus; assay: microbe, parasite or virus in culture; type: cell-based; conditions: Human immunodeficiency virus 1, single-cycle infection, luciferase
gp41 6-HB (N36/C34) = molecular target: T1, gp41 6-HB (N36/C34) (Human immunodeficiency virus type 1 group M subtype B, UniProt P04578); assay: N-PAGE for gp41 6-HB formation; type: biochemical, HIV-1; conditions: 400, 200, 100, 50, and 25 μM incubated with N36 before C34; dose-dependent
T1 construct: purchased GL Biochem of China; host or cells: chemical solid-phase Fmoc synthesis
Method: The inhibition of gp41 6-HB formation by NSPD-12m was further confirmed by N-PAGE as reported previously ([Liu et al., 2005]). Briefly, NSPD-12m at the indicated concentrations was incubated with the peptide N36 (100 μM in PBS) at 37°C for 30 min before the addition of the peptide C34 (100 μM in PBS). After incubation at 37°C for another 30 min, the mixture was diluted in Tris-glycine native sample buffer (Invitrogen, Carlsbad, CA) and then loaded onto 10 × 1.0-cm precast Tris-glycine gels (18%, Invitrogen) at 20 µl/well. Gel electrophoresis was carried out at constant voltage of 120 V at room temperature (RT) for 2 h in Tris-glycine native running buffer. Immediately after electrophoresis, the gel was stained by Coomassie blue (Invitrogen) and imaged by the FluorChem 8800 Imaging System (Alpha Innotech, San Leandro, CA). ADS-J1 (1 mM in PBS), a small-molecule HIV-1 entry inhibitor that blocks gp41 6-HB formation, was used as a positive control ([Wang et al., 2009]).

[4] = tested on: HIV-1HXB2 (X4 strain) Env pseudotyped virus; assay: microbe, parasite or virus in culture; type: cell-based; conditions: Human immunodeficiency virus 1, single-cycle infection, luciferase
HIV-1 X4 virus = assay: Cell-cell HIV-1 X4 transmission, MT-2 to CEMx174 5.25 M7 cells; type: cell-based; conditions: Human immunodeficiency virus 1; infected MT-2 to CEMx174 5.25 M7 cells; luciferase
Method: Inhibition of fusion between MT-2 cells infected by HIV-1 strains (X4 and R5 viruses) with CEMx174 5.25 M7 cells, which express CD4 and both coreceptors, CXCR4 and CCR5, was determined by a luciferase assay. Briefly, MT-2 cells were infected with the corresponding HIV-1 strains for 7 days. The infected MT-2 cells were washed three times and resuspended in culture medium to 2 × 10^5/ml. Then, 50 μl of a compound at graded concentrations in triplicate was incubated with equal volumes of HIV-1-infected MT-2 cells at 37°C for 30 min. Next, 100 μl of CEMx174 5.25 M7 cells (4 × 10^5/ml) was added, and the cells were incubated at 37°C for 3 days. The cells were collected, washed, and lysed with the lysing reagent included in the luciferase kit (Promega, Corp., Madison, Wis). Aliquots of cell lysates were transferred to 96-well flat-bottom luminometer plates (Costar), followed by the addition of luciferase substrate (Promega). Luciferase activity was measured using an Ultra 384 luminometer. ADS-J1 was used as a positive control for all cell–cell fusion assays.

T1 sequence (P04578 546-581): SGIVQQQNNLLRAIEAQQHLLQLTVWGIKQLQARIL

**Q.** Which EC50 [1] does the source give for Cc1cc(/C=C2\SC(=S)N(Cc3ccccc3C(F)(F)F)C2=O)c(C)n1-c1ccc(O)c(C(=O)O)c1 [NSPD-12m] here?
**A.** 2.03 to 6.85 µM

**Q.** And the IC50 [2]?
**A.** 4.23 ± 1.92 µM

**Q.** What about the IC90 [2] of the same molecule?
**A.** 29.7 ± 2.28 µM

**Q.** And the EC50 [3]?
**A.** ~19.7 µM

**Q.** What about the “intensity of the 6-HB band (upper position) in N-PAGE” value (gp41 6-HB (N36/C34)) of the same molecule?
**A.** decreased

**Q.** What about the EC50 [4] of the same molecule?
**A.** ~23.1 µM

**Q.** And the EC50 (HIV-1 X4 virus)?
**A.** 3.64 ± 0.34 µM
